According to patent publication US7064236B2, “Substituted 1-aryl-but-3-enylamine and 1-aryl-but-2-enylamine compounds” (Grunenthal GmbH, priority 2001, dated 2006):
Structures can show the parent of a compound that is named as a salt.

What follows are compounds tested on phenylquinone-induced writhing in mice (assay: Analgesic testing by phenylquinone-induced writhing test in mice). Settings: 10 min; 10 mg/kg intravenous, mouse, phenylquinone i.p. 10 minutes after compound; read-out: % Inhibition of writhing reaction.
Type: in vivo, mouse (male NMRI mice)
Description: Analgesic Testing by Writhing Test in Mice
The investigation into analgesic efficacy was performed by phenylquinone-induced writhing in mice (modified after: I. C. Hendershot and J. Forsaith (1959) J. Pharmacol. Exp. There. 125, 237–240). Male NMRI mice weighing from 25–30 g were used for this purpose. 10 minutes after intravenous administration of the test compounds, groups of 10 animals per dose of a compound received 0.3 ml/mouse of a 0.02% aqueous solution of phenylquinone (phenylbenzoquinone, sigma, Deisenhofen; production of the solution with addition of 5% ethanol and storage in water bath at 45° C.), administered intraperitoneally. The animals were placed individually in observation cages. A push button counter was used to record the number of pain-induced stretching movements (writhing reactions=straightening of the torso with stretching of the rear extremities) for 5–20 minutes after phenylquinone administration. The control was provided by animals who received only physiological common salt solution. All the compounds were tested at the standard dosage of 10 mg/kg. The percentage inhibition (%inhibition) of the writhing reaction by a compound of the general formula I according to the invention was calculated according to the following formula: […]
The in-depth investigation of the compounds of the general formula I according to the invention for analgesic efficacy was performed by phenylquinone-induced writhing in mice, as described above.

Compared with `CN(C)C(C1=C(Cc2cccc(F)c2)CCCC1)c1ccccc1` (stereo not drawn) [Example 21, {[2-(3-Fluoro-benzyl)-cyclohex-1-enyl)-phenyl-methyl}-dimethyl-amine hydrochloride], `CN(C)C(C1=C(Cc2ccccc2F)CCCC1)c1ccccc1` (stereo not drawn) [Example 19, {[2-(2-Fluoro-benzyl)-cyclohex-1-enyl)-phenyl-methyl}-dimethyl-amine hydrochloride] is higher in inhibition in vivo at 10 mg/kg: 67% for the first, 87% for the second.

Going from `CN(C)C(C1=C(c2ccc(Cl)cc2)CCCC1)c1ccccc1` (stereo not drawn) [Example 28, {[2-(4-Chloro-phenyl)-cyclohex-1-enyl]-phenyl-methyl}-dimethyl-amine hydrochloride] to `CN(C)C(C1=C(c2ccccc2)CCCC1)c1ccc(C(F)(F)F)cc1` (stereo not drawn) [Example 29, Dimethyl-[(2-phenyl-cyclohex-1-enyl)-(4-trifluoromethyl-phenyl)-methyl]-amine hydrochloride], the inhibition in vivo at 10 mg/kg falls from 71% to 40%.

Compared with `CN(C)C(C1=C(CCc2ccccc2)CCCC1)c1ccccc1` (stereo not drawn) [Example 23, Dimethyl-[(2-phenethyl-cyclohex-1-enyl)-phenyl-methyl]-amine hydrochloride], `CN(C)C(C1=C(Cc2ccccc2Cl)CCCC1)c1ccccc1` (stereo not drawn) [Example 20, {[2-(2-Chloro-benzyl)-cyclohex-1-enyl]-phenyl-methyl}-dimethyl-amine hydrochloride] is lower in inhibition in vivo at 10 mg/kg: 67% for the first, 63% for the second.

Going from `COc1ccc(C2=CCCCC2C(c2ccccc2)N(C)C)cc1` (stereo not drawn) [Example 27, {[2-(4-methoxy-phenyl)-cyclohex-2-enyl]-phenyl-methyl}-dimethylamine hydrochloride] to `CN(C)C(c1ccccc1)C1CCCC=C1c1cccc(O)c1` (stereo not drawn) [Example 24, 3-[6-(dimethylamino-phenyl-methyl)-cyclohex-1-enyl]-phenol hydrochloride], the inhibition in vivo at 10 mg/kg rises from 47% to 76%.

Same assay, conditions: 10 min; 21.5 mg/kg intravenous, mouse, phenylquinone i.p. 10 minutes after compound; read-out: % Inhibition of writhing reaction

`CN(C)C(C1=C(Cc2cccc(C(F)(F)F)c2)CCCC1)c1ccccc1` (stereo not drawn) [Example 22, Dimethyl-{phenyl-[2-(3-trifluoromethyl-benzyl)-cyclohex-1-enyl]-methyl}-amine hydrochloride] was tested, and the inhibition in vivo at 21.5 mg/kg was 46%.
